Each structure is given as a SMILES string. Some results are limits rather than exact numbers.

From US10131657B2, “Bromodomain inhibitors” (AbbVie Inc., priority 2013, dated 2018) come the findings set out here.

The test system of assay [1] is breast cancer cell line MX-1. As to the kind of experiment: MX-1 cell line proliferation assay, Method A. It is filed as cell-based. The conditions noted are these: Homo sapiens, MX1; MX-1 cells, 96-well, 72 hours, Cell Titer Glo; read-out: Cellular proliferation: EC50 Method A. Put shortly: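 MX-1 breast cancer cells (5000/well) were attached overnight in RPMI 1640 with 10% FBS, then exposed for 3 days to compound at 0.0001–3 μM final. Cell Titer Glo luminescence was normalized to DMSO controls, and EC50s were obtained by sigmoidal fitting.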
In general terms: In ATP-based viability assays light output follows the ATP content of the culture.

Assay [2] relates to breast cancer cell line MX-1. As to the kind of experiment: MX-1 cell line proliferation assay, Method B. The conditions noted are these: Homo sapiens, MX1; MX-1 cells, 384-well, 72 hours, Cell Titer Glo; read-out: Cellular proliferation: EC50 Method B. It is filed as cell-based. As for the experimental part: The impact of compounds of the Examples on cancer cell proliferation was determined using the breast cancer cell line MX-1 (ATCC) in a 3-day proliferation assay and the data are reported in Table 1.
MX-1 cells were maintained in RPMI 1640 medium (Sigma) supplemented with 10% FBS at 37° C. and an atmosphere of 5% CO2. For compound testing, MX-1 cells were plated in 384-well white with clear, flat bottom plates at a density of 750 cells/well in 25 μL of culture media and incubated at 370 overnight to allow cell adhesion and spreading. Ten point compound dilution series were prepared in DMSO via a 3-fold serial dilution from either 10 μM or 1 μM stock and added directly to the appropriate wells of the MX-1 cell plate by an ECHO liquid handler (Labcyte). The final compound concentrations in the wells were 10, 3.25, 1, 0.25, 0.124, 0.040, 0.0124, 0.0031, 0.0015 and 0.0005 μM or 1, 0.33, 0.1, 0.025, 0.0124, 0.004, 0.0012, 0.0003, 0.00015, 0.00005 μM, depending on the concentration of the compound stock solution.
Luminescence readings from the Cell Titer Glo assay were normalized to the DMSO treated cells and analyzed using Accelrys Assay Explorer 3.3 software with sigmoidal curve fitting to obtain EC50s. The minimum significant ratio (MSR) was determined to evaluate assay reproducibility (Eastwood et al., (2006) J Biomol Screen, 11: 253-261). The overall MSR was determined to be 3.3 and a moving MSR (last six run MSR overtime) has averaged 2.1.

`CN1CCC(N2CCN(Cc3cc4c(-c5cc(S(C)(=O)=O)ccc5Oc5ccc(F)cc5F)cn(C)c(=O)c4[nH]3)CC2)CC1` [Example 125, 4-[2-(2,4-difluorophenoxy)-5-(methylsulfonyl)phenyl]-6-methyl-2-{[4-(1-methylpiperidin-4-yl)piperazin-1-yl]methyl}-1,6-dihydro-7H-pyrrolo[2,3-c]pyridin-7-one]: the EC50 in assay [1] is 606 nM. On the same count and under the same terms, the result for `Cn1cc(-c2cc(S(C)(=O)=O)ccc2Oc2ccc(F)cc2F)c2cc(CN3CCOCC3c3ccco3)[nH]c2c1=O` (stereo not shown) [Example 127, 4-[2-(2,4-difluorophenoxy)-5-(methylsulfonyl)phenyl]-2-{[3-(furan-2-yl)morpholin-4-yl]methyl}-6-methyl-1,6-dihydro-7H-pyrrolo[2,3-c]pyridin-7-one] reads 128 nM; that for `Cc1cc(C)n(C2CN(Cc3cc4c(-c5cc(S(C)(=O)=O)ccc5Oc5ccc(F)cc5F)cn(C)c(=O)c4[nH]3)C2)n1` [Example 129, 4-[2-(2,4-difluorophenoxy)-5-(methylsulfonyl)phenyl]-2-{[3-(3,5-dimethyl-1H-pyrazol-1-yl)azetidin-1-yl]methyl}-6-methyl-1,6-dihydro-7H-pyrrolo[2,3-c]pyridin-7-one], 249 nM; that for `Cn1cc(-c2cc(S(C)(=O)=O)ccc2Oc2ccc(F)cc2F)c2cc(CN3CCC(N4CCOCC4)CC3)[nH]c2c1=O` [Example 130, 4-[2-(2,4-difluorophenoxy)-5-(methylsulfonyl)phenyl]-6-methyl-2-{[4-(morpholin-4-yl)piperidin-1-yl]methyl}-1,6-dihydro-7H-pyrrolo[2,3-c]pyridin-7-one], 337 nM.

Regarding `Cc1noc(C2CCCN2Cc2cc3c(-c4cc(S(C)(=O)=O)ccc4Oc4ccc(F)cc4F)cn(C)c(=O)c3[nH]2)n1` (stereo not shown) [Example 131, 4-[2-(2,4-difluorophenoxy)-5-(methylsulfonyl)phenyl]-6-methyl-2-{[2-(3-methyl-1,2,4-oxadiazol-5-yl)pyrrolidin-1-yl]methyl}-1,6-dihydro-7H-pyrrolo[2,3-c]pyridin-7-one], the EC50 in assay [2] came out at 827 nM. On the same count and under the same terms, the result for `Cn1cc(-c2cc(S(C)(=O)=O)ccc2Oc2ccc(F)cc2F)c2cc(CN3CCN(c4ccccn4)CC3)[nH]c2c1=O` [Example 132, 4-[2-(2,4-difluorophenoxy)-5-(methylsulfonyl)phenyl]-6-methyl-2-{[4-(pyridin-2-yl)piperazin-1-yl]methyl}-1,6-dihydro-7H-pyrrolo[2,3-c]pyridin-7-one] reads 653 nM; that for `CCNC(=O)/C=C/c1cc2c(-c3cc(S(=O)(=O)CC)ccc3Oc3c(C)cccc3C)cn(C)c(=O)c2[nH]1` [Example 134, (2E)-3-{4-[2-(2,6-dimethylphenoxy)-5-(ethylsulfonyl)phenyl]-6-methyl-7-oxo-6,7-dihydro-1H-pyrrolo[2,3-c]pyridin-2-yl}-N-ethylprop-2-enamide], 238 nM; that for `Cc1cccc(C)c1Oc1ccc(S(C)(=O)=O)cc1-c1cn(C)c(=O)c2[nH]c(-c3nc(C4CCCCC4)no3)cc12` [Example 136, 2-(3-cyclohexyl-1,2,4-oxadiazol-5-yl)-4-[2-(2,6-dimethylphenoxy)-5-(methylsulfonyl)phenyl]-6-methyl-1,6-dihydro-7H-pyrrolo[2,3-c]pyridin-7-one], > 1000 nM. Turning to `Cc1cccc(C)c1Oc1ccc(S(C)(=O)=O)cc1-c1cn(C)c(=O)c2[nH]c(-c3nc(-c4ccccc4)no3)cc12` [Example 137, 4-[2-(2,6-dimethylphenoxy)-5-(methylsulfonyl)phenyl]-6-methyl-2-(3-phenyl-1,2,4-oxadiazol-5-yl)-1,6-dihydro-7H-pyrrolo[2,3-c]pyridin-7-one], the EC50 in assay [2] was > 1000 nM. On the same count and under the same terms, next, `Cc1cccc(C)c1Oc1ccc(S(C)(=O)=O)cc1-c1cn(C)c(=O)c2[nH]c(-c3nc(-c4cccnc4)no3)cc12` [Example 138, 4-[2-(2,6-dimethylphenoxy)-5-(methylsulfonyl)phenyl]-6-methyl-2-[3-(pyridin-3-yl)-1,2,4-oxadiazol-5-yl]-1,6-dihydro-7H-pyrrolo[2,3-c]pyridin-7-one]: 465 nM. Same read-out and setting: the result for `Cc1cccc(C)c1Oc1ccc(S(C)(=O)=O)cc1-c1cn(C)c(=O)c2[nH]c(-c3nc(-c4ccccn4)no3)cc12` [Example 139, 4-[2-(2,6-dimethylphenoxy)-5-(methylsulfonyl)phenyl]-6-methyl-2-[3-(pyridin-2-yl)-1,2,4-oxadiazol-5-yl]-1,6-dihydro-7H-pyrrolo[2,3-c]pyridin-7-one] reads 532 nM; that for `Cc1cccc(C)c1Oc1ccc(S(C)(=O)=O)cc1-c1cn(C)c(=O)c2[nH]c(-c3nc(-c4cnccn4)no3)cc12` [Example 140, 4-[2-(2,6-dimethylphenoxy)-5-(methylsulfonyl)phenyl]-6-methyl-2-[3-(pyrazin-2-yl)-1,2,4-oxadiazol-5-yl]-1,6-dihydro-7H-pyrrolo[2,3-c]pyridin-7-one], 491 nM; that for `Cc1cccc(C)c1Oc1ccc(S(C)(=O)=O)cc1-c1cn(C)c(=O)c2[nH]c(-c3nc(C4CCOCC4)no3)cc12` [Example 141, 4-[2-(2,6-dimethylphenoxy)-5-(methylsulfonyl)phenyl]-6-methyl-2-[3-(tetrahydro-2H-pyran-4-yl)-1,2,4-oxadiazol-5-yl]-1,6-dihydro-7H-pyrrolo[2,3-c]pyridin-7-one], 443 nM. Same read-out and setting: next, `Cc1cccc(C)c1Oc1ccc(S(C)(=O)=O)cc1-c1cn(C)c(=O)c2[nH]c(-c3nc(-c4cscn4)no3)cc12` [Example 142, 4-[2-(2,6-dimethylphenoxy)-5-(methylsulfonyl)phenyl]-6-methyl-2-[3-(1,3-thiazol-4-yl)-1,2,4-oxadiazol-5-yl]-1,6-dihydro-7H-pyrrolo[2,3-c]pyridin-7-one]: 615 nM. As to `CCN(CC)C(C)(C)CNC(=O)c1cc2c(-c3cc(S(C)(=O)=O)ccc3Oc3c(C)cccc3C)cn(C)c(=O)c2[nH]1` [Example 143, N-[2-(diethylamino)-2-methylpropyl]-4-[2-(2,6-dimethylphenoxy)-5-(methylsulfonyl)phenyl]-6-methyl-7-oxo-6,7-dihydro-1H-pyrrolo[2,3-c]pyridine-2-carboxamide], the EC50 in assay [2] turned out to be 532 nM. Regarding `CCN(CC)CCCCNC(=O)c1cc2c(-c3cc(S(C)(=O)=O)ccc3Oc3c(C)cccc3C)cn(C)c(=O)c2[nH]1` [Example 144, N-[4-(diethylamino)butyl]-4-[2-(2,6-dimethylphenoxy)-5-(methylsulfonyl)phenyl]-6-methyl-7-oxo-6,7-dihydro-1H-pyrrolo[2,3-c]pyridine-2-carboxamide], the EC50 in assay [2] was 498 nM. Still for that read-out and setting: the result for `CCNC(=O)c1cc2c(-c3cc(S(=O)(=O)CC)ccc3Oc3c(C)cccc3CN3CCOCC3)cn(C)c(=O)c2[nH]1` [Example 146, N-ethyl-4-{5-(ethylsulfonyl)-2-[2-methyl-6-(morpholin-4-ylmethyl)phenoxy]phenyl}-6-methyl-7-oxo-6,7-dihydro-1H-pyrrolo[2,3-c]pyridine-2-carboxamide] reads 9320 nM; that for `CCNC(=O)c1cc2c(-c3cc(S(=O)(=O)CC)ccc3Oc3c(C)cccc3CN3CCCCC3)cn(C)c(=O)c2[nH]1` [Example 147, N-ethyl-4-{5-(ethylsulfonyl)-2-[2-methyl-6-(piperidin-1-ylmethyl)phenoxy]phenyl}-6-methyl-7-oxo-6,7-dihydro-1H-pyrrolo[2,3-c]pyridine-2-carboxamide], 6320 nM; that for `CCNC(=O)c1cc2c(-c3cc(S(=O)(=O)CC)ccc3Oc3c(C)cccc3CCc3ccccc3)cn(C)c(=O)c2[nH]1` [Example 148, N-ethyl-4-{5-(ethylsulfonyl)-2-[2-methyl-6-(2-phenylethyl)phenoxy]phenyl}-6-methyl-7-oxo-6,7-dihydro-1H-pyrrolo[2,3-c]pyridine-2-carboxamide], 1680 nM. Regarding `CCS(=O)(=O)c1ccc(OC2CCCCC2)c(-c2cn(C)c(=O)c3[nH]c(-c4cnn(C5CCNCC5)c4)cc23)c1` [Example 149, 4-[2-(cyclohexyloxy)-5-(ethylsulfonyl)phenyl]-6-methyl-2-[1-(piperidin-4-yl)-1H-pyrazol-4-yl]-1,6-dihydro-7H-pyrrolo[2,3-c]pyridin-7-one], in assay [2], the EC50 is 1.18 nM.

With `CCNC(=O)c1cc2c(-c3cc(S(=O)(=O)CC)ccc3Oc3c(C)cccc3Cn3ccnc3)cn(C)c(=O)c2[nH]1` [Example 150, N-ethyl-4-{5-(ethylsulfonyl)-2-[2-(1H-imidazol-1-ylmethyl)-6-methylphenoxy]phenyl}-6-methyl-7-oxo-6,7-dihydro-1H-pyrrolo[2,3-c]pyridine-2-carboxamide], the EC50 in assay [2] is > 10000 nM.

Regarding `CCS(=O)(=O)Nc1ccc(Oc2ccc(F)cc2F)c(-c2cn(C)c(=O)c3[nH]c(C#CCOC)cc23)c1` [Example 163, N-{4-(2,4-difluorophenoxy)-3-[2-(3-methoxyprop-1-yn-1-yl)-6-methyl-7-oxo-6,7-dihydro-1H-pyrrolo[2,3-c]pyridin-4-yl]phenyl}ethanesulfonamide], the EC50 in assay [1] is 47.7 nM.
